Laboratory results as given in patent US20070149487A1, “Antiviral Compositions and Methods” (priority 2005, published 2007).

Tests used:
[1] = system: Vero E6 cells
[2] = system: human SARS-CoV Toronto-2 strain; assay type: cell-based

Structure (SMILES)	CC50 [1]	EC50 [2]	Average Inhibition (%) at 32 μM [2]	toxicity to normal cells in cell viability assays ([1]; at 23 μM)
Cc1ccc([N+](=O)[O-])cc1N1C(=O)c2ccc(C(=O)O)cc2C1=O [CS12]	> 100 µM	> 100 µM	13%	
O=C(O)c1ccc(C2Nc3c(Cl)cc(Cl)c(Cl)c3C3C=CCC32)cc1 (stereo not shown) [CS09]	85 µM	> 100 µM	13%	
CN1CCc2c(sc3c2C(=O)NC(c2ccc(O)c(O)c2)N3)C1 (stereo not shown) [CS01]	> 100 µM	> 100 µM	0%	
O=C(O)c1ccc(N=Cc2c(O)ccc3oc4c(c23)CCCC4)cc1 [CS11]	76 µM	23 µM	66%	not toxic
CCN1C(=O)c2cccc3c(NC(=O)c4ccc([N+](=O)[O-])s4)ccc1c23 [CS05]	10 µM	> 100 µM	0%	
CS(=O)(=O)c1ccc2c(c1)nc(C(F)(F)F)n2C1CCNCC1 [CS02]	> 100 µM	> 100 µM	0%	
O=C(NN=C1C(=O)Nc2ccccc21)NC1CCS(=O)(=O)C1 (racemic) [CS07]	> 100 µM	> 100 µM	1%	
CC(=O)Nc1ccc2c(c1)[C@H]1C=CC[C@@H]1[C@H](c1ccc([N+](=O)[O-])cc1)N2 [CS08]	> 100 µM	> 100 µM	17%	
N=C1C(=Cc2ccc3c(c2)OCO3)C(=O)C=C2SC(C(F)(F)F)=NN12 [CS10]	67 µM	> 100 µM	14%	
CN1CCC(c2nc(-c3ccc(Cl)cc3)cc(C(F)(F)F)n2)CC1 [CS06]	95 µM	> 100 µM	0%	
CC(=O)Nc1ccc(N2C(=O)CC(N3CC(C)OC(C)C3)C2=O)cc1 (stereo not shown) [CS04]	> 100 µM	> 100 µM	4%	
NC(c1cc(C(F)(F)F)cc(C(F)(F)F)c1)c1cc(C(F)(F)F)cc(C(F)(F)F)c1 [CS03]	> 100 µM	> 100 µM	0%	
